Laboratory results reported in patent publication US11541104B2, “Method for preventing or treating osteoporosis, characterized by administering teriparatide or salt thereof at a frequency of twice a week” (ASAHI KASEI PHARMA CORPORATION, priority 2018, dated 2023).

Assays:
Assay type in all cases: in vivo, rabbit
[1] = test system: six-month old female rabbits; test: Bone tissue morphology of diaphysis of tibiae of rabbits
Procedure: (§1) To evaluate the influences of the administration frequencies of teriparatide on the bone metabolism and the bone tissue morphology, six-month old female rabbits were subcutaneously administered with an agent in a manner that a weekly dosage of teriparatide was adjusted to 140 μg/kg at a frequency of once a week, twice a week or seven times a week over 4 weeks, or with a control drug without containing teriparatide at a frequency of seven times a week over 4 weeks (Table 2-54). Also, the bone mineral density and the bone strength of the tibiae were measured. The teriparatide solution which was administered was appropriately prepared by dissolving teriparatide acetate in a water for injection, filtering the solution, filling the filtrate in a vial, freeze-drying to give a preparation, and dissolving the preparation in a physiological saline upon use.

[2] = test system: six-month old female rabbits; test: Bone mineral densities of tibiae of rabbits (Working Example 2); details: 4 weeks; for Bone mineral densities in proximal part (1/5 site) of the tibiae: 140 μg/kg per week; for Bone mineral densities in the proximal part (1/5 site) of the tibiae: weekly dosage 140 μg/kg
Procedure: as §1
The bone mineral densities of the tibiae were analyzed in divided regions.

[3] = test system: six-month old female rabbits; test: Bone strength of tibiae of rabbits, three-point bending strength; details: for Maximum load, bone strength of tibiae: 140 μg/kg per week, subcutaneous, 4 weeks; for Maximum load, three-point bending strength of the tibiae: versus control group
Procedure: as §1
Three-point bending strength of the tibiae collected after the end of the administration period was measured.

[4] = group administered seven times a week
[5] = group administered twice a week

Structure (SMILES): CC[C@H](C)[C@H](NC(=O)[C@H](CCC(=O)O)NC(=O)[C@H](CO)NC(=O)[C@@H](NC(=O)[C@@H](N)CO)C(C)C)C(=O)N[C@@H](CCC(N)=O)C(=O)N[C@@H](CC(C)C)C(=O)N[C@@H](CCSC)C(=O)N[C@@H](Cc1cnc[nH]1)C(=O)N[C@@H](CC(N)=O)C(=O)N[C@@H](CC(C)C)C(=O)NCC(=O)N[C@@H](CCCCN)C(=O)N[C@@H](Cc1cnc[nH]1)C(=O)N[C@@H](CC(C)C)C(=O)N[C@@H](CC(N)=O)C(=O)N[C@@H](CO)C(=O)N[C@@H](CCSC)C(=O)N[C@@H](CCC(=O)O)C(=O)N[C@@H](CCCN=C(N)N)C(=O)N[C@H](C(=O)N[C@@H](CCC(=O)O)C(=O)N[C@@H](Cc1c[nH]c2ccccc12)C(=O)N[C@@H](CC(C)C)C(=O)N[C@@H](CCCN=C(N)N)C(=O)N[C@@H](CCCCN)C(=O)N[C@@H](CCCCN)C(=O)N[C@@H](CC(C)C)C(=O)N[C@@H](CCC(N)=O)C(=O)N[C@@H](CC(=O)O)C(=O)N[C@H](C(=O)N[C@@H](Cc1cnc[nH]1)C(=O)N[C@@H](CC(N)=O)C(=O)N[C@@H](Cc1ccccc1)C(=O)O)C(C)C)C(C)C [teriparatide]
- Bone tissue morphology of diaphysis of tibiae ([1]; group administered once a week): none of these findings were observed
- Bone tissue morphology of diaphysis of tibiae [1, 4]: formation of trabecular bones on the endocortical surfaces, a large number of intracortical voids (increase of cortical porosity), and disorderedness in a lamellar structure were observed
- Bone tissue morphology of diaphysis of tibiae [1, 5]: none of these findings were observed
- Bone mineral densities in proximal part (1/5 site) of the tibiae ([2]; Group administered once a week, subcutaneous): 272.5 ± 13.6 mg/cm^2
- Bone mineral densities in proximal part (1/5 site) of the tibiae ([2]; Group administered twice a week, subcutaneous): 278.8 ±9.8 mg/cm^2
- Bone mineral densities in the proximal part (1/5 site) of the tibiae [2, 5]: higher value than that of the group administered once a week
- Bone mineral densities in the proximal part (1/5 site) of the tibiae ([2]; subcutaneous, as compared to control group): remarkably increased
- Maximum load, bone strength of tibiae ([3]; Group administered once a week): 583.81 N
- Maximum load, bone strength of tibiae ([3]; Group administered seven times a week): 656.09 N
- Maximum load, bone strength of tibiae ([3]; Group administered twice a week): 624.41 N
- Maximum load, three-point bending strength of the tibiae [3, 4]: higher values
- Maximum load, three-point bending strength of the tibiae [3, 5]: higher values
